# Measurements: ChEMBL document CHEMBL4359847, “Novel N-aryl nicotinamide derivatives: Taking stock on 3,6-diazabicyclo[3.1.1]heptanes as ligands for neuronal acetylcholine receptors” (Eur J Med Chem, 2019)
# pEC50, pKi: −log10 of the molar value. Calls of active or inactive are those of the source. No cut-off for these calls is given here.
# How the values were obtained:
# [1] = target: T1, Neuronal acetylcholine receptor; alpha4/beta2 (Rattus norvegicus, UniProt P09483+P12390); assay: Displacement of [3H]epibatidine from alpha4beta2 nAChR in rat cerebral cortex membrane; assay type: cell membranes
# [2] = species: Rattus norvegicus; assay: Selectivity index, ratio of Ki for alpha7 nAChR in rat hippocampus membrane to Ki for alpha4beta2 nAChR in rat cerebral cortex membrane; assay type: cell membranes
# [3] = target: T2, Neuronal acetylcholine receptor; alpha3/beta4 (Homo sapiens, UniProt P30926+P32297); assay: Displacement of [3H]epibatidine from human alpha3beta4 nAChR transfected in […] cell membrane; assay type: cell membranes
# [4] = target: Neuronal acetylcholine receptor subunit alpha-7 (Rattus norvegicus, UniProt Q05941); assay: Displacement of [125I]alpha-bungarotoxin from alpha7nAChR in rat hippocampus membrane; assay type: cell membranes
# [5] = Selectivity index, ratio of Ki for human alpha3beta4 nAChR in […] cell membrane to Ki for alpha4beta2 nAChR in rat cerebral cortex membrane; assay type: cell-based
# [6] = target: T3, Neuronal acetylcholine receptor; alpha4/beta2 (Homo sapiens, UniProt P17787+P43681); assay: Agonist activity at human alpha4beta2 nAChR expressed in GH4C1 cells assessed as increase in inward channel current measured after 3 to 4 days at -70 mV holding potential by patch clamp assay relative to acetylcholine; assay type: cell-based
# [7] = target: T3, Neuronal acetylcholine receptor; alpha4/beta2; assay: Agonist activity at human alpha4beta2 nAChR expressed in GH4C1 cells assessed as increase in inward channel current measured after 3 to 4 days at -70 mV holding potential by patch clamp assay; assay type: cell-based
# [8] = target: T2, Neuronal acetylcholine receptor; alpha3/beta4; assay: Agonist activity at human alpha3beta4 nAChR expressed in GH4C1 cells assessed as inward channel current at 0.01 to 100 uM measured after 3 to 4 days at -70 mV holding potential by patch clamp assay; assay type: cell-based
# [9] = target: T2, Neuronal acetylcholine receptor; alpha3/beta4; assay: Agonist activity at human alpha3beta4 nAChR expressed in GH4C1 cells assessed as increase in inward channel current measured after 3 to 4 days at -70 mV holding potential by patch clamp assay; assay type: cell-based
# [10] = target: T2, Neuronal acetylcholine receptor; alpha3/beta4; assay: Agonist activity at human alpha3beta4 nAChR expressed in GH4C1 cells assessed as increase in inward channel current at >1 uM measured after 3 to 4 days at -70 mV holding potential by patch clamp assay; assay type: cell-based
# [11] = target: T1, Neuronal acetylcholine receptor; alpha4/beta2; assay: Displacement of [3H]cytisine from alpha4beta2 nAChR in rat brain cerebral cortex membrane incubated for 75 mins by scintillation counting method; assay type: cell membranes
# Neuronal acetylcholine receptor subunit alpha-7, sequence (Q05941 whole entry): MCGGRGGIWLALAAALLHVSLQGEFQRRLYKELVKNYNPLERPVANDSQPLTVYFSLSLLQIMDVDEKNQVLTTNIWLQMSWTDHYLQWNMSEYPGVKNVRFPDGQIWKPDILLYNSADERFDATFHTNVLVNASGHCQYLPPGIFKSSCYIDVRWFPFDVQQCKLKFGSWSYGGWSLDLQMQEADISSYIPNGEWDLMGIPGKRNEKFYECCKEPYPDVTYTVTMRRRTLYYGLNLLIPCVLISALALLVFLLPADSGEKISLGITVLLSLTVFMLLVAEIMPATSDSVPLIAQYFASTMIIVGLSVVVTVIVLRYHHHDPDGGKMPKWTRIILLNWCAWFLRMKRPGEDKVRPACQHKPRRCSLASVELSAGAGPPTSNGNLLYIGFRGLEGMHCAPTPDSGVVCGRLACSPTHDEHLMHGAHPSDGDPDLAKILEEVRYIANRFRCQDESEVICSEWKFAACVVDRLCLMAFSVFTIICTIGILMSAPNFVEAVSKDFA
# T2 sequence (P30926 whole entry): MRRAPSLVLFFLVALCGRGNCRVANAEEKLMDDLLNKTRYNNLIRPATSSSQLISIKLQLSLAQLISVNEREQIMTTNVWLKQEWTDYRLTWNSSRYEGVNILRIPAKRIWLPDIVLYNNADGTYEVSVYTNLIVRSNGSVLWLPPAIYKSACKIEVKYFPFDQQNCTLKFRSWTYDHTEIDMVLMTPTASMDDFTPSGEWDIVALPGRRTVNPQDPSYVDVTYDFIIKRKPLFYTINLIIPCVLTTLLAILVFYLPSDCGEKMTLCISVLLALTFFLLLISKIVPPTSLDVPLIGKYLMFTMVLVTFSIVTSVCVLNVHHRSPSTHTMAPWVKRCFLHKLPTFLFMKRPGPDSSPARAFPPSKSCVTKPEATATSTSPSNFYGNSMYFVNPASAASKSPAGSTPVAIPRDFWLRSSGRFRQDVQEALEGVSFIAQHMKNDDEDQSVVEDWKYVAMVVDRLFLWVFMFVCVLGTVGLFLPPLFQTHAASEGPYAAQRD
# T2 sequence (P32297 whole entry): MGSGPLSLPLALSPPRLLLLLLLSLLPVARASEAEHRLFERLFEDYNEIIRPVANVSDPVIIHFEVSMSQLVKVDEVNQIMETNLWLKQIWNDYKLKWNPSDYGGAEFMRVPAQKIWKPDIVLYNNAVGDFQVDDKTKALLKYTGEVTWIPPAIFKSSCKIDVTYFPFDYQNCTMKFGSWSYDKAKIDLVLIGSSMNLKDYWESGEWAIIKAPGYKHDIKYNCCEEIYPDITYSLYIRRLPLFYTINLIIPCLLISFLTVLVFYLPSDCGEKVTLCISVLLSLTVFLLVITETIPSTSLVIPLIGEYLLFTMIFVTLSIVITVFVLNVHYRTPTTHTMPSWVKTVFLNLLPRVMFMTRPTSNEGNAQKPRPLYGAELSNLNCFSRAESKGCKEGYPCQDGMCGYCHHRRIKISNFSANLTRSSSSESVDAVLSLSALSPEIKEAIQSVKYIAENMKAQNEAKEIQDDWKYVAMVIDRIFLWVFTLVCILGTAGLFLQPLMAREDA
# T3 sequence (P17787 whole entry): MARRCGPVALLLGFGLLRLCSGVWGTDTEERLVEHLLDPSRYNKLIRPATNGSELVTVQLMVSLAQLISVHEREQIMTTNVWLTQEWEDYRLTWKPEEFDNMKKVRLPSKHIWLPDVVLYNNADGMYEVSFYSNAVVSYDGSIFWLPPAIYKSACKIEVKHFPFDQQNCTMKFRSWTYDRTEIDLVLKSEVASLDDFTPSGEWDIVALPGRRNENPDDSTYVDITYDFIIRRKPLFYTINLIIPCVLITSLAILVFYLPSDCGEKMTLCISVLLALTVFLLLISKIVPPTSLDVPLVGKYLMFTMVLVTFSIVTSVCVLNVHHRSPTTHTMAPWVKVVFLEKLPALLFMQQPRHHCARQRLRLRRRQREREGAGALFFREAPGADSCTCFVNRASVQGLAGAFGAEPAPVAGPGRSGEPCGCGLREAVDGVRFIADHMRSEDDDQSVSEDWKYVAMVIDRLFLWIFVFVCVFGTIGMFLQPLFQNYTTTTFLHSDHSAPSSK
# T3 sequence (P43681 whole entry): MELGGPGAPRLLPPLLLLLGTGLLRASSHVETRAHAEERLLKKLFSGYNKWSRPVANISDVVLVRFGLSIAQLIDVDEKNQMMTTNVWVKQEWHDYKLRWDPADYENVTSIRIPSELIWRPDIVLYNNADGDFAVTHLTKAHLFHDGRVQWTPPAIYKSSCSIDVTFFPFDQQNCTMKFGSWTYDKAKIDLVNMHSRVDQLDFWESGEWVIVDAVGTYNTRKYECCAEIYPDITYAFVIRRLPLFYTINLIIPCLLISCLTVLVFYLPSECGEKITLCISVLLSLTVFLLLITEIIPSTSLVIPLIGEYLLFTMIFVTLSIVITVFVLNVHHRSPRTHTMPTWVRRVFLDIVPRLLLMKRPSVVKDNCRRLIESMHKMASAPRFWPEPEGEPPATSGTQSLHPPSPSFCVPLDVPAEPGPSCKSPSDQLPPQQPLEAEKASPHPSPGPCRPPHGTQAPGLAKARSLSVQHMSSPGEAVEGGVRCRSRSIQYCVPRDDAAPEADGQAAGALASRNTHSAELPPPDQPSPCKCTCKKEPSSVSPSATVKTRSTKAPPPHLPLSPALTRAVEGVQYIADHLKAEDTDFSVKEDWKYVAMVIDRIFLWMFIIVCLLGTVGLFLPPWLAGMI
# T1 sequence (P09483 whole entry): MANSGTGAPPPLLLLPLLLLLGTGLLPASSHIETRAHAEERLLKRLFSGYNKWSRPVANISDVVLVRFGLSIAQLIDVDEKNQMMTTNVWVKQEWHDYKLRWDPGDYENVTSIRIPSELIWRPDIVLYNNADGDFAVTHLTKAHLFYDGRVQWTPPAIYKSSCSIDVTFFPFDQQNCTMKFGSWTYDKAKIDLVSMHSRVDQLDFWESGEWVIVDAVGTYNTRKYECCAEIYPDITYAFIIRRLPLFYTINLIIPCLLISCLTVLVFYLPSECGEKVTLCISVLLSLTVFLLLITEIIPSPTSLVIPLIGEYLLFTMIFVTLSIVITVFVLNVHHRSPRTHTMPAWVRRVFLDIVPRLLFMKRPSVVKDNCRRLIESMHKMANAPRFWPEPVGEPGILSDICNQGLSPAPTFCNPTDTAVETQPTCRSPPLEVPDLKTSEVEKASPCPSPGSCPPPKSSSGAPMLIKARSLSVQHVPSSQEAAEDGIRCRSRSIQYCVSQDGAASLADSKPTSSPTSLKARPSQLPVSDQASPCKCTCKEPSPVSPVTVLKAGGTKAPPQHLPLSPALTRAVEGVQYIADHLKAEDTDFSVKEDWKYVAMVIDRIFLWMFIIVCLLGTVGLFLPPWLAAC
# T1 sequence (P12390 whole entry): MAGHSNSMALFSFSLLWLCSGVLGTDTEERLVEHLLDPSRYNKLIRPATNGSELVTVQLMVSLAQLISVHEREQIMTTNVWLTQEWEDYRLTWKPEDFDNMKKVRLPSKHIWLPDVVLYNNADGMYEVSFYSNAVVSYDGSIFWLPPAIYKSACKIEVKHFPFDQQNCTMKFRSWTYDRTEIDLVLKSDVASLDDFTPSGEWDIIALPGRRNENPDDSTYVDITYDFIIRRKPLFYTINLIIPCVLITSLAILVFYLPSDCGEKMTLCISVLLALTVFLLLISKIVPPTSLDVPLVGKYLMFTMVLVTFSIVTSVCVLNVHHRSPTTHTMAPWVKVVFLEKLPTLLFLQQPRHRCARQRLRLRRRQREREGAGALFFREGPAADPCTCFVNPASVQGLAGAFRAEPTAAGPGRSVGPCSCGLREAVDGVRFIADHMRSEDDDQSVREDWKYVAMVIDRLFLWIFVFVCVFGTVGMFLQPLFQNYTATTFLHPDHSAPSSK
Structure (SMILES),pKi [1],Ratio Ki [2],pKi [3],pKi [4],Ratio Ki [5],Imax [6] [%],pEC50 [7],Activity [8],pEC50 [9],Activity [10],pKi [11]
O=C(Nc1ccccc1)c1cncc(N2CC3CC(C2)N3)c1,8.96,2180,6.72,5.62,174,–,–,–,–,–,–
O=C(Nc1ccccc1F)c1cncc(N2CC3CC(C2)N3)c1,9.50,10800,6.99,5.47,324,–,–,–,–,–,–
O=C(Nc1cccc(Cl)c1)c1cncc(N2CC3CC(C2)N3)c1,10.38,545000,7.23,4.64,1400,37,6.00,inactive,–,–,–
COc1cc(NC(=O)c2cncc(N3CC4CC(C3)N4)c2)cc(OC)c1,9.01,43800,5.70,4.37,2030,–,–,–,–,–,–
O=C(NCc1ccccc1)c1cncc(N2CC3CC(C2)N3)c1,8.74,594,5.80,5.97,889,–,–,–,–,–,–
O=C(Nc1ccc(Cl)cc1)c1cncc(N2CC3CC(C2)N3)c1,9.39,32200,6.91,4.89,304,–,–,–,–,–,–
COc1cccc(NC(=O)c2cncc(N3CC4CC(C3)N4)c2)c1,9.25,> 89300,6.58,< 4.30,473,38,6.22,–,< 5.00,Active,–
O=C(Nc1ccc(F)cc1)c1cncc(N2CC3CC(C2)N3)c1,11.00,3.32e+06,7.09,4.48,8100,41,6.28,–,< 5.00,Active,–
O=C(Nc1ccc(F)cc1F)c1cncc(N2CC3CC(C2)N3)c1,10.29,> 980000,7.30,< 4.30,980,–,–,–,–,–,–
O=C(c1cncc(N2CC3CC(C2)N3)c1)N1CCc2ccccc2C1,10.51,32300,7.68,6.00,677,–,–,–,–,–,–
O=C(Nc1ccc2c(c1)OCO2)c1cncc(N2CC3CC(C2)N3)c1,9.97,79200,6.95,5.08,1070,–,–,–,–,–,–
O=C(Nc1ccc(I)cc1)c1cncc(N2CC3CC(C2)N3)c1,9.44,63900,6.99,4.63,281,–,–,–,–,–,–
O=C(c1cncc(N2CC3CC(C2)N3)c1)N1CCCc2ccccc21,9.71,> 255000,7.21,< 4.30,316,–,–,–,–,–,–
O=C(Nc1cccc(F)c1)c1cncc(N2CC3CC(C2)N3)c1,10.36,634000,7.55,4.55,636,–,–,–,–,–,–
COc1ccc(NC(=O)c2cncc(N3CC4CC(C3)N4)c2)cc1OC,9.08,2780,6.29,5.64,623,–,–,–,–,–,–
CCc1cccc(NC(=O)c2cncc(N3CC4CC(C3)N4)c2)c1,8.89,> 38500,6.51,< 4.30,235,–,–,–,–,–,–
Clc1ccc(N2CC3CCC(C2)N3)cn1,–,–,–,–,–,–,–,–,–,–,9.02
